# Experiments:
# MDA-MB-231 cells = assay: MTT cell viability assay, MDA-MB-231; format: cell-based; settings: Homo sapiens, MDA-MB-231, 48 h, read-out: Cell growth % at 10 µM, MDA-MB-231
# Experimental: (§1) The cell lines were obtained from the American Type Culture Collection (ATCC). Five tumor cell lines (MDA-MB-231, MCF-7, HCT116, HTB-54, and DU-145) and two non-tumorigenic cells (184B5 and BEAS-2B) were grown in RPMI 1640 medium (Gibco), and the HT-29 tumor cell line was grown in McCoy’s medium. Both mediums were supplemented with 10% fetal bovine serum (FBS; Gibco) and 1% antibiotics (10.00 units/mL penicillin and 10.00 μg/mL streptomycin; Gibco). Cells were preserved in tissue culture flasks at 37 °C and 5% CO2. The culture medium was replaced every three days.
# (§2) The effect of each compound on cell viability was tested using the MTT assay. […] Selected compounds were then tested at seven different concentrations (0.5–100 μM) in MCF-7, HCT116, HT-29, HTB-54, 184B5 and BEAS-2B cells. Cells were seeded at 10^4 per well onto flat-bottomed 96-well culture plates. They were treated with either DMSO or increasing concentration of the corresponding compound for 48 h. Then, they were incubated with 20 μL of 3-(4,5-dimethylthiazol-2-yl)-2,5-diphenyltetrazolium bromide (MTT) (2 mg /mL stock; Aldrich) for 2,5 h and analyzed for their ability to generate a purple formazan dye. These formazan crystals were dissolved in 50 μL of DMSO. The absorbance was measured at a wavelength of 550 nm and the ratio of viable cells was calculated.
# (§3) Results are expressed as cell viability % at 10 μM. Selectivity index were calculated as the ratio of the IC50 values determined for the non-malignant and the tumor cells in breast (IC50 (184B5)/IC50 (MCF-7)) and lung (IC50 (BEAS-2B)/IC50 (HTB-54)) cell lines. Data were obtained from at least three independent experiments performed in triplicates.
# [1] = tested on: panel of 60 human tumor cell lines; assay: NCI-60 analysis (One-Dose and Five-Dose), whole panel; format: cell-based; settings: 48 h; for GI50: Homo sapiens, Five-Dose assay, 60 cell lines; for mean growth percent: One Dose (10 µM), 60 cancer cell lines
# Experimental: (§4) Compounds 14a and 17a were submitted to the Developmental Therapeutics Program (DTP) of National Cancer Institute (NCI). Cytotoxicity activity was evaluated by performing One-Dose screening (10^−5 M) against a panel of 60 human tumor cell lines. […] Cells grew in the RPMI 1640 medium containing 5% fetal bovine serum and 2 mM L-glutamine and were inoculated into 96-well microtiter plates in 100 μL at plating densities ranging from 5.000 to 40.000 cells/well. The microtiter plates inoculated with cells were incubated at 37 °C, in 5% humidified CO2 for 24 h prior to addition of experimental drugs. Then, experimental drugs were added, and the microtiter plates were incubated for 48 h. The protocol is available on https://dtp.cancer.gov/discovery_development/nci-60/methodology.htm accessed on 31 December 2022.
# SK-MEL-5 (melanoma) = assay: NCI-60 Five-Dose assay, SK-MEL-5; format: cell-based; settings: Homo sapiens, 48 h
# Experimental: as §4, with “Cytotoxicity activity was evaluated by performing One-Dose screening (10^−5 M) against a panel of 60 human tumor cell lines.” left out
# OVCAR-3 (ovarian) = assay: NCI-60 Five-Dose assay, OVCAR-3; format: cell-based; settings: Homo sapiens, 48 h
# Experimental: as §4
# [2] = tested on: HTB-54, DU-145, HT-29 and MDA-MB-231 cancer cell lines; assay: cells; format: cell-based; settings: against the panel of the four cancer cell lines
# Experimental: as §1, §2
# As a first approach, all the compounds were tested in vitro against lung (HTB-54), prostatic (DU-145), colon (HT-29), and triple-negative breast (MDA-MB-231) cancer cell lines at two concentrations (50 and 10 µM) for 48 h. Then, the MTT colorimetric assay was used to evaluate cell proliferation after the treatment. The data are expressed as the percentage of cell growth ± SD in at least three independent experiments performed in quadruplicates (Table S1).
# HCT116 cells = assay: MTT cell viability assay, HCT116; format: cell-based; settings: Homo sapiens, HCT-116, 48 h
# Experimental: as §1, §2, §3
# [3] = tested on: HTB-54, HT-29, HCT116 and MCF-7 cancer cell lines; assay: MTT IC50, all tested cancer cell lines; format: cell-based; settings: 48 h
# Experimental: as §1
# as §2, with “calculated. […]” for “calculated.”
# SNB-19 (CNS) = assay: NCI-60 Five-Dose assay, SNB-19; format: cell-based; settings: Homo sapiens, 48 h
# Experimental: as §4, with “Cytotoxicity activity was evaluated by performing One-Dose screening (10^−5 M) against a panel of 60 human tumor cell lines.” left out
# in vitro = assay: in vitro
# Experimental: Franz diffusion cells (Microette 8910130, Hanson Research) were employed to perform this assay. The compounds were dissolved in DMSO at 5 mg/mL and diluted to 500 µg/mL with phosphate-buffered saline (PBS)/EtOH (7:3) to make a stock solution. A total of 10 µL of porcine brain lipid (PBL) diluted in dodecane solution (20 mg/mL) was spread onto a PVDF membrane that was placed between the donor and acceptor compartments, forming a sandwich structure. Then, 4.5 mL of PBS/EtOH (7:3) was added to the acceptor compartment and 700 µL of the stock solution was added to the donor cell. […] The concentration of the compound was calculated from the standard curve and expressed as permeability (Pe) by the following formula [84]:Permeability (cm/s): Pe = {−ln [1 − CA(t)/Ceq]}/[A ∗ (1/VD + 1/VA) ∗ t]
# A = filter area ([…]), VD = donor cell volume (0.7 mL), VA = acceptor cell volume (4.5 mL), t = incubation time, CA (t) = compound concentration in acceptor cell at time t, CD (t) = compound concentration in donor cell at time t, and Ceq = [CD(t) ∗ VD + […] ∗ VA]/(VD + VA).
# Every sample was analyzed at least in duplicate and the data were reported as mean ± SD.
SMILES,viability at 10 µM (MDA-MB-231 cells) [%],GI50 [1] [µM],mean growth percent [1],GI50 (SK-MEL-5 (melanoma)) [µM],GI50 (OVCAR-3 (ovarian)) [µM],viability at 10 µM [2] [%],IC50 (HCT116 cells) [µM],IC50 [3] [µM],GI50 (SNB-19 (CNS)) [µM],"Papp at 20 h, 500 µg/mL (in vitro; PAMPA) [×10⁻⁶ cm/s]",fold higher Pe compared to galantamine (in vitro; PAMPA-BBB) [fold],"Pe ± SD (in vitro; PAMPA-BBB, porcine brain lipid, 20 h, 25 °C) [×10⁻⁶ cm/s]",BBB Permeation (Experimental) (in vitro; class from PAMPA-BBB Pe)
"C=CC[Se]C(=O)Cc1c(C)n(C(=O)c2ccc(Cl)cc2)c2ccc(OC)cc12 [Compound 17a, Se-allyl 2-[1-(4-chlorobenzoyl)-5-methoxy-2-methyl-1H-indol-3-yl]ethaneselenoate]",26.5 ± 5.6,1.74,−26.70,1.7,1.8,< 55,7 ± 0.9,< 10,0.66,–,–,–,–
"C=CC[Se]C(=O)c1ccccc1OC(C)=O [Compound 14a, 2-(allylselanylcarbonyl)phenylacetate]",38.8 ± 3.6,1.79,−5.89,1.9,1.9,< 55,5.9 ± 0.8,< 10,0.49,36.9 ± 0.1,3,36.92,High (High BBB permeation predicted; Pe (10^−6 cm s^−1) > 4.0)

# From PMC9854712 (Antioxidants, 2023)
